Reference: BigSolDB 2.1

Cc1ccc(-c2cc(C(F)(F)F)nn2-c2ccc(S(N)(=O)=O)cc2)cc1
solubility (mole fraction)
Conditions | 293.2 K | 298.2 K | 303.2 K | 308.2 K | 313.2 K
in NMP | 0.0593 | 0.0672 | 0.0776 | 0.0799 | 0.0917
in isopropanol | 0.00851 | 0.00902 | 0.0156 | 0.0198 | 0.0233
